{
  "source": "patent US8802597B2",
  "about": "“Herbicidal pyrimidines” (E I du Pont de Nemours and Company, priority 2003, dated 2014)",
  "assay_in_all_cases": "Test C pre/postemergence",
  "type_in_all_cases": "in vivo",
  "key": {"[1]": {"system": "Surinam grass (Brachiaria decumbens)", "conditions": "Urochloa decumbens; for pest or weed control at 125 g/ha: 125 g ai/ha; for pest or weed control at 16 g/ha: 16 g ai/ha; for pest or weed control at 31 g/ha: 31 g ai/ha; for pest or weed control at 62 g/ha: 62 g ai/ha", "procedure,_shortened": "(§1)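 Rating scale 0–100: 0 means no effect, 100 complete control; taken visually 12 to 14 days post-treatment versus controls. Pre- and postemergence greenhouse applications, postemergence at 1- to 4-leaf stage, non-phytotoxic solvent with surfactant as carrier.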"}, "kochia (Kochia scoparia)": {"system": "kochia (Kochia scoparia)", "conditions": "Bassia scoparia; for pest or weed control at 16 g/ha: 16 g ai/ha; for pest or weed control at 31 g/ha: 31 g ai/ha; for pest or weed control at 62 g/ha: 62 g ai/ha; for pest or weed control at 125 g/ha: 125 g ai/ha", "procedure,_shortened": "as §1"}, "[2]": {"system": "johnsongrass (Sorghum halepense)", "conditions": "Sorghum halepense; for pest or weed control at 16 g/ha: 16 g ai/ha; for pest or weed control at 31 g/ha: 31 g ai/ha; for pest or weed control at 62 g/ha: 62 g ai/ha; for pest or weed control at 125 g/ha: 125 g ai/ha", "procedure,_shortened": "as §1"}, "[3]": {"system": "bermudagrass (Cynodon dactylon)", "conditions": "Cynodon dactylon; for pest or weed control at 16 g/ha: 16 g ai/ha; for pest or weed control at 31 g/ha: 31 g ai/ha; for pest or weed control at 62 g/ha: 62 g ai/ha; for pest or weed control at 125 g/ha: 125 g ai/ha", "procedure,_shortened": "as §1"}, "[4]": {"system": "pigweed (Amaranthus retroflexus)", "conditions": "Amaranthus retroflexus; for pest or weed control at 16 g/ha: 16 g ai/ha; for pest or weed control at 31 g/ha: 31 g ai/ha; for pest or weed control at 62 g/ha: 62 g ai/ha; for pest or weed control at 125 g/ha: 125 g ai/ha", "procedure,_shortened": "as §1"}, "[5]": {"system": "morningglory (Ipomoea coccinea)", "conditions": "Ipomoea, post-emergence, Postemergence", "procedure,_shortened": "as §1"}, "[6]": {"conditions": "post-emergence, Postemergence, scale 0 to 100 (0 no effect, 100 complete control), read-out: Surinam Grass plant response rating"}, "[7]": {"conditions": "post-emergence, Postemergence, read-out: Plant response rating (scale of 0 to 100), Surinam Grass"}, "[8]": {"conditions": "pre-emergence, Preemergence, scale 0 to 100, 0 no effect, 100 complete control, read-out: Plant response rating, Surinam Grass"}, "[9]": {"conditions": "post-emergence, Postemergence, read-out: Plant response rating (scale of 0 to 100), Kochia"}, "[10]": {"conditions": "post-emergence, Postemergence, scale 0 to 100 (0 no effect, 100 complete control), read-out: Kochia plant response rating"}, "[11]": {"conditions": "pre-emergence, Preemergence, scale 0 to 100, 0 no effect, 100 complete control, read-out: Plant response rating, Kochia"}, "[12]": {"conditions": "post-emergence, Postemergence, read-out: Plant response rating (scale of 0 to 100), Johnsongrass"}, "[13]": {"conditions": "post-emergence, Postemergence, scale 0 to 100 (0 no effect, 100 complete control), read-out: Johnsongrass plant response rating"}, "[14]": {"conditions": "pre-emergence, Preemergence, scale 0 to 100, 0 no effect, 100 complete control, read-out: Plant response rating, Johnsongrass"}, "[15]": {"conditions": "post-emergence, Postemergence, read-out: Plant response rating (scale of 0 to 100), Bermudagrass"}, "[16]": {"conditions": "post-emergence, Postemergence, scale 0 to 100 (0 no effect, 100 complete control), read-out: Bermudagrass plant response rating"}, "[17]": {"conditions": "pre-emergence, Preemergence, scale 0 to 100, 0 no effect, 100 complete control, read-out: Plant response rating, Bermudagrass"}, "[18]": {"conditions": "post-emergence, Postemergence, read-out: Plant response rating (scale of 0 to 100), Pigweed"}, "[19]": {"conditions": "post-emergence, Postemergence, scale 0 to 100 (0 no effect, 100 complete control), read-out: Pigweed plant response rating"}, "[20]": {"conditions": "pre-emergence, Preemergence, scale 0 to 100, 0 no effect, 100 complete control, read-out: Plant response rating, Pigweed"}},
  "note": "Where two headings read alike, the source gives them in different places.",
  "data": [
    {"smiles": "COC(=O)c1nc(C2CC2)nc(N)c1F", "note": "[Compound 25]", "values": [
      {"measurement": "pest or weed control at 125 g/ha", "setting": "[1]; [6]", "result": 5, "unit": "%"},
      {"measurement": "pest or weed control at 16 g/ha", "setting": "[1]; [7]", "result": 0, "unit": "%"},
      {"measurement": "pest or weed control at 31 g/ha", "setting": "[1]; [7]", "result": 0, "unit": "%"},
      {"measurement": "pest or weed control at 62 g/ha", "setting": "[1]; [6]", "result": 0, "unit": "%"},
      {"measurement": "pest or weed control at 16 g/ha", "setting": "[1]; [8]", "result": 0, "unit": "%"},
      {"measurement": "pest or weed control at 31 g/ha", "setting": "[1]; [8]", "result": 0, "unit": "%"},
      {"measurement": "pest or weed control at 62 g/ha", "setting": "[1]; [8]", "result": 0, "unit": "%"},
      {"measurement": "pest or weed control at 125 g/ha", "setting": "[1]; pre-emergence, Preemergence, scale 0 to 100, read-out: Plant response rating, Surinam Grass", "result": 40, "unit": "%"},
      {"measurement": "pest or weed control at 16 g/ha", "setting": "kochia (Kochia scoparia); [9]", "result": 10, "unit": "%"},
      {"measurement": "pest or weed control at 31 g/ha", "setting": "kochia (Kochia scoparia); [9]", "result": 80, "unit": "%"},
      {"measurement": "pest or weed control at 62 g/ha", "setting": "kochia (Kochia scoparia); [10]", "result": 85, "unit": "%"},
      {"measurement": "pest or weed control at 125 g/ha", "setting": "kochia (Kochia scoparia); [10]", "result": 85, "unit": "%"},
      {"measurement": "pest or weed control at 16 g/ha", "setting": "kochia (Kochia scoparia); [11]", "result": 0, "unit": "%"},
      {"measurement": "pest or weed control at 31 g/ha", "setting": "kochia (Kochia scoparia); [11]", "result": 0, "unit": "%"},
      {"measurement": "pest or weed control at 62 g/ha", "setting": "kochia (Kochia scoparia); [11]", "result": 5, "unit": "%"},
      {"measurement": "pest or weed control at 125 g/ha", "setting": "kochia (Kochia scoparia); pre-emergence, Preemergence, scale 0 to 100, read-out: Plant response rating, Kochia", "result": 70, "unit": "%"},
      {"measurement": "pest or weed control at 16 g/ha", "setting": "[2]; [12]", "result": 0, "unit": "%"},
      {"measurement": "pest or weed control at 31 g/ha", "setting": "[2]; [12]", "result": 10, "unit": "%"},
      {"measurement": "pest or weed control at 62 g/ha", "setting": "[2]; [13]", "result": 10, "unit": "%"},
      {"measurement": "pest or weed control at 125 g/ha", "setting": "[2]; [13]", "result": 20, "unit": "%"},
      {"measurement": "pest or weed control at 16 g/ha", "setting": "[2]; [14]", "result": 0, "unit": "%"},
      {"measurement": "pest or weed control at 31 g/ha", "setting": "[2]; [14]", "result": 0, "unit": "%"},
      {"measurement": "pest or weed control at 62 g/ha", "setting": "[2]; [14]", "result": 0, "unit": "%"},
      {"measurement": "pest or weed control at 125 g/ha", "setting": "[2]; pre-emergence, Preemergence, scale 0 to 100, read-out: Plant response rating, Johnsongrass", "result": 0, "unit": "%"},
      {"measurement": "pest or weed control at 16 g/ha", "setting": "[3]; [15]", "result": 0, "unit": "%"},
      {"measurement": "pest or weed control at 31 g/ha", "setting": "[3]; [15]", "result": 0, "unit": "%"},
      {"measurement": "pest or weed control at 62 g/ha", "setting": "[3]; [16]", "result": 0, "unit": "%"},
      {"measurement": "pest or weed control at 125 g/ha", "setting": "[3]; [16]", "result": 0, "unit": "%"},
      {"measurement": "pest or weed control at 16 g/ha", "setting": "[3]; [17]", "result": 0, "unit": "%"},
      {"measurement": "pest or weed control at 31 g/ha", "setting": "[3]; [17]", "result": 0, "unit": "%"},
      {"measurement": "pest or weed control at 62 g/ha", "setting": "[3]; [17]", "result": 0, "unit": "%"},
      {"measurement": "pest or weed control at 125 g/ha", "setting": "[3]; pre-emergence, Preemergence, scale 0 to 100, read-out: Plant response rating, Bermudagrass", "result": 10, "unit": "%"},
      {"measurement": "pest or weed control at 16 g/ha", "setting": "[4]; [18]", "result": 50, "unit": "%"},
      {"measurement": "pest or weed control at 31 g/ha", "setting": "[4]; [18]", "result": 50, "unit": "%"},
      {"measurement": "pest or weed control at 62 g/ha", "setting": "[4]; [19]", "result": 80, "unit": "%"},
      {"measurement": "pest or weed control at 125 g/ha", "setting": "[4]; [19]", "result": 100, "unit": "%"},
      {"measurement": "pest or weed control at 16 g/ha", "setting": "[4]; [20]", "result": 0, "unit": "%"},
      {"measurement": "pest or weed control at 31 g/ha", "setting": "[4]; [20]", "result": 30, "unit": "%"},
      {"measurement": "pest or weed control at 62 g/ha", "setting": "[4]; [20]", "result": 35, "unit": "%"},
      {"measurement": "pest or weed control at 125 g/ha", "setting": "[4]; pre-emergence, Preemergence, scale 0 to 100, read-out: Plant response rating, Pigweed", "result": 85, "unit": "%"},
      {"measurement": "pest or weed control at 16 g/ha", "setting": "[5]; 16 g ai/ha, read-out: Plant response rating (scale of 0 to 100), Morningglory", "result": 90, "unit": "%"},
      {"measurement": "pest or weed control at 31 g/ha", "setting": "[5]; 31 g ai/ha, read-out: Plant response rating (scale of 0 to 100), Morningglory", "result": 90, "unit": "%"},
      {"measurement": "pest or weed control at 62 g/ha", "setting": "[5]; 62 g ai/ha, scale 0 to 100 (0 no effect, 100 complete control), read-out: Morningglory plant response rating", "result": 90, "unit": "%"},
      {"measurement": "pest or weed control at 125 g/ha", "setting": "[5]; 125 g ai/ha, scale 0 to 100 (0 no effect, 100 complete control), read-out: Morningglory plant response rating", "result": 90, "unit": "%"}
    ]}
  ]
}
